{"source": "PubChem BioAssay AID1259407", "about": "(Chemical Carcinogenesis Research Information System (CCRIS), 2018)", "tested_on": "CCRIS mutagenicity, Ames/micronucleus/aberration tests", "assay": "CCRIS mutagenicity studies", "key": {"[1]": {"settings": "Test System: AMES SALMONELLA TYPHIMURIUM, Strain/Indicator: TA98, Metabolic Activation: RAT, LIVER, S-9, AROCLOR 1254, Method: STANDARD PLATE"}, "[2]": {"settings": "Test System: AMES SALMONELLA TYPHIMURIUM, Strain/Indicator: TA100, Metabolic Activation: RAT, LIVER, S-9, AROCLOR 1254, Method: STANDARD PLATE"}, "[3]": {"settings": "Test System: AMES SALMONELLA TYPHIMURIUM, Strain/Indicator: TA1535, Metabolic Activation: RAT, LIVER, S-9, AROCLOR 1254, Method: STANDARD PLATE"}, "[4]": {"settings": "Test System: AMES SALMONELLA TYPHIMURIUM, Strain/Indicator: TA1538, Metabolic Activation: RAT, LIVER, S-9, AROCLOR 1254, Method: STANDARD PLATE"}}, "note": "Calls of active or inactive are those of the source. The rule behind the calls is not given here.", "data": [{"compound": "CSCC[C@H](NC(=O)COc1ccc(Cl)cc1Cl)C(=O)O", "values": [{"measurement": "mutagenic call", "setting": "Test System: AMES SALMONELLA TYPHIMURIUM, Strain/Indicator: TA97, Metabolic Activation: RAT, LIVER, S-9, AROCLOR 1254, Method: STANDARD PLATE", "value": "inactive; negative"}, {"measurement": "mutagenic call", "setting": "Test System: AMES SALMONELLA TYPHIMURIUM, Strain/Indicator: TA97, Metabolic Activation: WOODCHUCK, LIVER, S-9, 3-METHYLCHOLANTHRENE, Method: STANDARD PLATE", "value": "inactive; negative"}, {"measurement": "mutagenic call", "setting": "[1]", "value": "inactive; negative"}, {"measurement": "mutagenic call", "setting": "Test System: AMES SALMONELLA TYPHIMURIUM, Strain/Indicator: TA98, Metabolic Activation: WOODCHUCK, LIVER, S-9, 3-METHYLCHOLANTHRENE, Method: STANDARD PLATE", "value": "inactive; negative"}, {"measurement": "mutagenic call", "setting": "[2]", "value": "inactive; negative"}, {"measurement": "mutagenic call", "setting": "Test System: AMES SALMONELLA TYPHIMURIUM, Strain/Indicator: TA100, Metabolic Activation: WOODCHUCK, LIVER, S-9, 3-METHYLCHOLANTHRENE, Method: STANDARD PLATE", "value": "inactive; negative"}, {"measurement": "mutagenic call", "setting": "[3]", "value": "inactive; negative"}, {"measurement": "mutagenic call", "setting": "Test System: AMES SALMONELLA TYPHIMURIUM, Strain/Indicator: TA1535, Metabolic Activation: WOODCHUCK, LIVER, S-9, 3-METHYLCHOLANTHRENE, Method: STANDARD PLATE", "value": "inactive; negative"}, {"measurement": "mutagenic call", "setting": "[4]", "value": "inactive; negative"}, {"measurement": "mutagenic call", "setting": "Test System: AMES SALMONELLA TYPHIMURIUM, Strain/Indicator: TA1538, Metabolic Activation: WOODCHUCK, LIVER, S-9, 3-METHYLCHOLANTHRENE, Method: STANDARD PLATE", "value": "inactive; negative"}]}, {"compound": "CCCOC(=O)c1cc(O)c(O)c(O)c1", "values": [{"measurement": "mutagenic call", "setting": "End Point: IN VITRO CHROMOSOMAL ABERRATIONS, Test System: CHO CELLS, Metabolic Activation: RAT, LIVER, S-9, AROCLOR 1254", "value": "inactive; negative"}, {"measurement": "mutagenic call", "setting": "Test System: AMES SALMONELLA TYPHIMURIUM, Strain/Indicator: TA97, Metabolic Activation: NONE, Method: PREINCUBATION", "value": "inactive; negative"}, {"measurement": "mutagenic call", "setting": "Test System: AMES SALMONELLA TYPHIMURIUM, Strain/Indicator: TA97, Metabolic Activation: S-9, Method: PREINCUBATION", "value": "inactive; negative"}, {"measurement": "mutagenic call", "setting": "Test System: AMES SALMONELLA TYPHIMURIUM, Strain/Indicator: TA98, Metabolic Activation: NONE, Method: PREINCUBATION", "value": "inactive; negative"}, {"measurement": "mutagenic call", "setting": "Test System: AMES SALMONELLA TYPHIMURIUM, Strain/Indicator: TA98, Metabolic Activation: NONE, Method: STANDARD PLATE", "value": "inactive; negative"}, {"measurement": "mutagenic call", "setting": "Test System: AMES SALMONELLA TYPHIMURIUM, Strain/Indicator: TA98, Metabolic Activation: RAT LIVER S-9, Method: PREINCUBATION", "value": "inactive; negative"}, {"measurement": "mutagenic call", "setting": "[1]", "value": "inactive; negative"}, {"measurement": "mutagenic call", "setting": "Test System: AMES SALMONELLA TYPHIMURIUM, Strain/Indicator: TA100, Metabolic Activation: NONE, Method: PREINCUBATION", "value": "inactive; negative"}, {"measurement": "mutagenic call", "setting": "Test System: AMES SALMONELLA TYPHIMURIUM, Strain/Indicator: TA100, Metabolic Activation: NONE, Method: STANDARD PLATE", "value": "inactive; negative"}, {"measurement": "mutagenic call", "setting": "Test System: AMES SALMONELLA TYPHIMURIUM, Strain/Indicator: TA100, Metabolic Activation: RAT LIVER S-9, Method: PREINCUBATION", "value": "inactive; negative"}, {"measurement": "mutagenic call", "setting": "[2]", "value": "inactive; negative"}, {"measurement": "mutagenic call", "setting": "Test System: AMES SALMONELLA TYPHIMURIUM, Strain/Indicator: TA102, Metabolic Activation: NONE, Method: PREINCUBATION", "value": "inactive; negative"}, {"measurement": "mutagenic call", "setting": "Test System: AMES SALMONELLA TYPHIMURIUM, Strain/Indicator: TA102, Metabolic Activation: S-9, Method: PREINCUBATION", "value": "active; positive"}, {"measurement": "mutagenic call", "setting": "Test System: AMES SALMONELLA TYPHIMURIUM, Strain/Indicator: TA1535, Metabolic Activation: NONE, Method: STANDARD PLATE", "value": "inactive; negative"}, {"measurement": "mutagenic call", "setting": "[3]", "value": "inactive; negative"}, {"measurement": "mutagenic call", "setting": "Test System: AMES SALMONELLA TYPHIMURIUM, Strain/Indicator: TA1537, Metabolic Activation: NONE, Method: STANDARD PLATE", "value": "inactive; negative"}, {"measurement": "mutagenic call", "setting": "Test System: AMES SALMONELLA TYPHIMURIUM, Strain/Indicator: TA1537, Metabolic Activation: RAT, LIVER, S-9, AROCLOR 1254, Method: STANDARD PLATE", "value": "inactive; negative"}, {"measurement": "mutagenic call", "setting": "Test System: AMES SALMONELLA TYPHIMURIUM, Strain/Indicator: TA1538, Metabolic Activation: NONE, Method: STANDARD PLATE", "value": "inactive; negative"}, {"measurement": "mutagenic call", "setting": "[4]", "value": "inactive; negative"}, {"measurement": "mutagenic call", "setting": "Test System: Ames Salmonella typhimurium, Strain/Indicator: TA102, Metabolic Activation: None, Method: Preincubation", "value": "inactive; negative"}, {"measurement": "mutagenic call", "setting": "Test System: Ames Salmonella typhimurium, Strain/Indicator: TA102, Metabolic Activation: Rat, Liver, S-9, Aroclor 1254 in 0.154 M KCl, Method: Preincubation", "value": "inactive; negative"}, {"measurement": "mutagenic call", "setting": "Test System: E. COLI, Strain/Indicator: WP2, Metabolic Activation: NONE, Method: STANDARD PLATE", "value": "inactive; negative"}, {"measurement": "mutagenic call", "setting": "Test System: E. COLI, Strain/Indicator: WP2, Metabolic Activation: RAT, LIVER, S-9, AROCLOR 1254, Method: STANDARD PLATE", "value": "inactive; negative"}]}, {"compound": "COc1ccc(-c2oc3ccccc3c(=O)c2[N+](=O)[O-])cc1[N+](=O)[O-]", "values": [{"measurement": "mutagenic call", "setting": "Test System: AMES SALMONELLA TYPHIMURIUM, Strain/Indicator: TA100, Metabolic Activation: RAT LIVER S-9, AROCLOR 1254, Method: STANDARD PLATE", "value": "active; positive"}, {"measurement": "mutagenic call", "setting": "Test System: AMES SALMONELLA TYPHIMURIUM, Strain/Indicator: YG1042, Metabolic Activation: RAT LIVER S-9, AROCLOR 1254, Method: STANDARD PLATE", "value": "active; positive"}]}]}
